Measured values reported in patent publication US20230405003A1, “APPLICATION OF THYMIDINE DERIVATIVE IN PREPARATION OF DRUGS” (ONQUALITY PHARMACEUTICALS CHINA LTD., priority 2020, published 2023).
Where two headings read alike, the source gives them in different places.

Tests used:
[1] = system: human colon cancer cell HCT116 xenograft; assay: Effect of thymidine derivative gel on therapeutical effect of capecitabine, HCT116 xenograft nude mice; assay type: in vivo, mouse; conditions: oral capecitabine 1.5 mmol/kg, 14 days
Method: A BALB/C nude mouse (human colon cancer cell HCT116 xenograft) model was established. After the model was stable, the model mice were divided into four groups (in which the average tumor size of each of the 4 groups was kept as consistent as possible). Except the blank group (containing 5 mice), there were 10 mice in each group, which were subject to gavage and application experiments.
Capecitabine was dissolved in a mixed solution of castor oil:ethanol=1:1 (volume ratio). Prior to gavage, the mixture was diluted with PBS to the desired concentration (diluted for about 3 times with PBS solution). […]
A: Group of blank: 5 mice with tumors, no gavage and no drug application; B: blank group: 10 mice with tumors, oral gavage with capecitabine (1.5 mmol/kg), application with blank gel on the back (once per day for 14 days); C: 0.5% T1 group: 10 mice with tumors, oral gavage of capecitabine, application with 0.5% T1 gel (administration method and frequency are the same as those in group B); D: 2% T1 gel group: 10 mice with tumors, oral gavage of capecitabine, application of 2% T1 gel (administration method and frequency are the same as those in group B). […] The tumor size was measured and recorded every 2 days. After 14 days of the experiment, the mice were dissected to take out the tumor, which was weighed and recorded.

[2] = system: pain in capecitabine hand-foot syndrome rats; assay: Pain of hand-foot syndrome, mechanical sensitivity in rats (von Frey); assay type: in vivo, rat; conditions: capecitabine 4000 mg/kg hand-foot syndrome rats; thymidine derivative 3%
Method: According to the method of Examples 91-115, after administration of a thymidine derivative (at a concentration of 3%) and co-administration of a thymidine derivative (at a concentration of 1%) with a uridine derivative (at a concentration of 3%) to rat hand-foot syndrome models constructed from 4000 mg/kg of capecitabine for a period of time, pain analysis was performed on the rats, and the pain assessment model was mechanical sensitivity in rats (von Frey). The experimental steps were as follows: first, the rats were allowed to adapt in the room for 1 hour, then the rats were placed in an observation box with a metal mesh floor, and the mice were allowed to stay in the box for 20 minutes to adapt to the experimental platform. Next, a von Frey device was used to detect paw pain by stimulating the surface of the rat's palm with specially designed cilia to detect the mechanical sensitivity of the animal at strength of 0.4 g, 0.8 g, 1.5 g, 2.5 g, 4 g, 8 g, 10 g and 20 g (IITC Life Science, Woodland Hills, 2390 series). […] The rat movement response was considered to be a vague response, in which case the stimulation experiment was repeated.

[3] = system: hand-foot syndrome caused by capecitabine in SD rats; assay: Rat model of hand-foot syndrome caused by capecitabine, gel application; assay type: in vivo; conditions: capecitabine 4000 mg/kg once daily, 40 days; for Control Rate Forepaws / Control Rate Hindpaws / inhibition in vivo at 3 % / inhibition in vivo at 5 %: rats; for inhibition in vivo at 3 % / inhibition in vivo at 5 %: Rattus norvegicus, topical, 960 h; for inhibition in vivo at 5 %: gel 5 wt%
Method: A rat animal model was established. 6-week aged female SD rats were administered with capecitabine by daily gavage. The degree of hand-foot syndrome in paws is similar, and there was no difference between the left and right paws. Similar to the human body, rats developed hand-foot syndrome after oral administration of capecitabine. The causes of the two are the same, and the disorder is also very similar. Therefore, rats are very good animal models for simulating the hand-foot syndrome caused by capecitabine.
(§1) After SD rats were fed and adapted for one week (about 200 g), the rats were divided into groups, with 10 rats in each group. Then, the rats were subject to gavage administration. Capecitabine was dissolved in a 1:1 mixed solution of castor oil and ethanol and diluted for three times with PBS buffer. After gavage, the rats were fixed with a fixed cylinder, and a gel of thymidine derivative (or a compounded gel of thymidine derivative and uridine derivative) was applied to double hind paws (about 1 cm*3 cm) of the rats in group of administration (the types and concentrations are shown in Table 4), and a blank gel was applied to the group of blank (as a blank control). After approximately 4 hours of application, the rats were released after 4 hours, wiped with clean water to remove any residual drug at the application site, and allowed back to the cage. The thymidine derivative gel (or the compounded gel of thymidine derivative and uridine derivative) was administered with gavage every day. The gavage and application tests are repeated daily until the group of blank has developed obvious hand-foot syndrome.
Table 4 lists the combinations of animal experiments of capecitabine and the thymidine derivative gel (or the compounded gel of thymidine derivative and uridine derivative) and the corresponding experimental results (wherein, the data in the column of control rate=the occurrence rate of hand-foot syndrome in group of blank—the occurrence rate of hand-foot syndrome in group of administration). […]

HaCaT cells = assay: Relief of 5-FU proliferative toxicity to HaCaT cells (CCK-8 cell survival); assay type: cell-based; conditions: for Cell Survival Rate (increased percentage of cell survival compared with the Group of 5-FU): 5-Fu 20 μM, HaCaT cells
Method in brief: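 HaCaT keratinocytes (5000–10000/well) cultured 24 h, then exposed 48 h to 5-FU alone or with thymidine derivative, or thymidine plus uridine derivative mix, versus solvent-matched blanks. Survival by CCK-8; value is % increase in survival over 5-FU alone, t-test.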

blood cells = assay: Blood cell count after 5-FU diarrhea experiment in mice; assay type: in vivo, mouse; conditions: orbital blood after 5-FU 70 mg/kg/d i.p. three days
Description: After completion of the experiments, the mice in the 5-FU control group and the experimental group were subject to blood collection at orbital. Blood cells were counted.

[4] = system: hand-foot syndrome caused by Acelarin (NUC-1031) in rats; assay: Rat model of hand-foot syndrome caused by Acelarin (NUC-1031), gel application; assay type: in vivo; conditions: Acelarin (NUC-1031) 130 mg/kg intraperitoneal injection twice a week, gel 3 wt%, 30 days
Method: as §1
(§2) The effects of thymidine derivative or a combination of thymidine derivative and uridine derivative on the chemotherapeutic drug-induced hand-foot syndrome in a rat model were tested according to the method in Examples 30-40. At the same time, paws of rats after treatment with the drug were taken and observed for their inflammation by hematoxylin-eosin staining (HE) and immunohistochemical staining (IHC).
(§3) The test thymidine derivative or the combination of thymidine derivative and uridine derivative, as well as the final concentration of the test compounds were shown in Table 8. Table 8 lists the animal experiment combination of a chemotherapeutical drug and the thymidine derivative gel (or the compound gel of thymidine derivative and uridine derivative) and the corresponding experimental results (wherein, the data in the column of control rate=the occurrence rate of hand-foot syndrome in Group of blank—the occurrence rate of hand-foot syndrome in Group of administration).

[5] = system: hand-foot syndrome caused by Cytarabine in rats; assay: Rat model of hand-foot syndrome caused by cytarabine, gel application; assay type: in vivo; conditions: Cytarabine 120 mg/kg twice per day, gel 3 wt%, 30 days
Method: as §1, §2, §3

[6] = system: hand-foot syndrome caused by Doxorubicin in rats; assay: Rat model of hand-foot syndrome caused by doxorubicin, gel application; assay type: in vivo; conditions: Doxorubicin 7 mg/kg tail intravenous injection once every three days for 20 days, gel 3 wt%, 30 days
Method: as §1, §2, §3

[7] = gel 3 wt%, read-out: Control Rate Forepaws
[8] = gel 3 wt%, read-out: Control Rate Hindpaws
[9] = selected compound final concentration 12.5 μM
[10] = selected compound final concentration 25 μM
[11] = selected compound final concentration 50 μM

SMILES: CCCCCOC(=O)Nc1nc(=O)n([C@@H]2O[C@H](C)[C@@H](O)[C@H]2O)cc1F [capecitabine, reference compound]
- volume of tumor tissue versus group without capecitabine gavage [1]: significantly smaller than that in Group A

SMILES: CCC1(CC(C)=O)OCCc2c1[nH]c1c(CC(=O)OC[C@H]3O[C@@H](n4cc(C)c(=O)[nH]c4=O)C[C@@H]3O)cccc21 (stereo partly shown) [T26]
- pain in rats (von Frey mechanical sensitivity) [2]: could significantly improve pain in rats
- Control Rate Forepaws ([3]; gel 1 wt%): 22.22%
- Control Rate Hindpaws ([3]; gel 1 wt%): 44.44%
- Control Rate Forepaws ([3]; gel 3 wt%): 57.14%
- Control Rate Hindpaws ([3]; gel 3 wt%): 71.43%

SMILES: Cc1cn([C@H]2C[C@H](O)[C@@H](COC(=O)C(C)(C)C)O2)c(=O)[nH]c1=O [T4]
- activation at 1 µM (HaCaT cells; Homo sapiens, HaCaT, increase vs Group of 5-FU, 5-FU 20 μM, compound 1 μM, 48 h, read-out: Cell Survival Rate): 20 to 36%
- activation at 10 µM (HaCaT cells; Homo sapiens, HaCaT, increase vs Group of 5-FU, 5-FU 20 μM, compound 10 μM, 48 h, read-out: Cell Survival Rate): 65 to 72%
- activation at 100 µM (HaCaT cells; Homo sapiens, HaCaT, increase vs Group of 5-FU, 5-FU 20 μM, compound 100 μM, 48 h, read-out: Cell Survival Rate): 80 to 90%
- activation at 500 µM (HaCaT cells; Homo sapiens, HaCaT, increase vs Group of 5-FU, 5-FU 20 μM, compound 500 μM, 48 h, read-out: Cell Survival Rate): 70 to 77%
- activation at 1000 µM (HaCaT cells; Homo sapiens, HaCaT, increase vs Group of 5-FU, 5-FU 20 μM, compound 1000 μM, 48 h, read-out: Cell Survival Rate): 2 to 7%
- pain in rats (von Frey mechanical sensitivity) [2]: did not significantly improve pain in rats
- inhibition in vivo at 3 % [3, 7]: 28.6%
- inhibition in vivo at 3 % [3, 8]: 42.9%
- Control Rate ([3]; SD rats, gel 2 wt% on hind paws): 32.86%

SMILES: O=c1[nH]cc(F)c(=O)[nH]1 [5-FU, fluorouracil (5-FU)]
- blood cells (blood cells): can reduce all the blood cells that could be detected

SMILES: CC(=O)Oc1ccccc1C(=O)OC[C@H]1O[C@@H](n2cc(C)c(=O)[nH]c2=O)C[C@@H]1O [T37]
- Cell Survival Rate (increased percentage of cell survival compared with the Group of 5-FU) (HaCaT cells; selected compound final concentration 0.8 μM): 36%-44%
- Cell Survival Rate (increased percentage of cell survival compared with the Group of 5-FU) (HaCaT cells; selected compound final concentration 1.6 μM): 55%-62%
- Cell Survival Rate (increased percentage of cell survival compared with the Group of 5-FU) (HaCaT cells; selected compound final concentration 3.13 μM): 61%-69%
- Cell Survival Rate (increased percentage of cell survival compared with the Group of 5-FU) (HaCaT cells; selected compound final concentration 6.25 μM): 68%-76%
- Cell Survival Rate (increased percentage of cell survival compared with the Group of 5-FU) (HaCaT cells; [9]): 52%-60%
- Cell Survival Rate (increased percentage of cell survival compared with the Group of 5-FU) (HaCaT cells; [10]): 49%-57%
- Cell Survival Rate (increased percentage of cell survival compared with the Group of 5-FU) (HaCaT cells; [11]): 52%-59%
- Control Rate Forepaws [4]: 42.86%
- Control Rate Hindpaws [4]: 71.43%
- pain in rats (von Frey mechanical sensitivity) [2]: could significantly improve pain in rats
- Control Rate Forepaws [5]: 22.22%
- Control Rate Hindpaws [5]: 44.44%
- inhibition in vivo at 3 % [3, 7]: 28.6%
- inhibition in vivo at 3 % [3, 8]: 42.9%

SMILES: COc1ccc2cc([C@@H](C)C(=O)OC[C@H]3O[C@@H](n4cc(C)c(=O)[nH]c4=O)C[C@@H]3O)ccc2c1 [T41]
- Cell Survival Rate (increased percentage of cell survival compared with the Group of 5-FU) (HaCaT cells; [9]): 39%-46%
- Cell Survival Rate (increased percentage of cell survival compared with the Group of 5-FU) (HaCaT cells; [10]): 47%-55%
- Cell Survival Rate (increased percentage of cell survival compared with the Group of 5-FU) (HaCaT cells; [11]): 44%-51%
- pain in rats (von Frey mechanical sensitivity) [2]: could significantly improve pain in rats
- inhibition in vivo at 3 % [3, 7]: 50%
- inhibition in vivo at 3 % [3, 8]: 62.5%
- inhibition in vivo at 5 % ([3]; read-out: Control Rate Forepaws): 50%
- inhibition in vivo at 5 % ([3]; read-out: Control Rate Hindpaws): 75%
- Control Rate Forepaws [6]: 57.14%
- Control Rate Hindpaws [6]: 42.86%
